Patent US9796742B2, “Kinase inhibitors” (Respivert Limited, priority 2012, dated 2017)

Assays:
PBMCs [1] = test: IL-2 and IFN gamma release in CD3/CD28 stimulated PBMC cells; type: cell-based; conditions: Homo sapiens, IL-2, read-out: IC50 Values for Inhibition of Cytokine Release, PBMCs IL-2
Protocol: PBMCs from healthy subjects are separated from whole blood using a density gradient (Lymphoprep, Axis-Shield Healthcare). Cells are added to a 96 well plate pre-coated with a mixture of CD3/[…] monoclonal antibodies (0.3 μg/mL eBioscience and 3 μg/mL BD Pharmingen respectively). Compound at the desired concentration is then added to the wells and the plate left for 3 days under normal tissue culture conditions. Supernatants are harvested and IL-2 and IFN gamma release determined by Sandwich ELISA (Duo-set, R&D System). The IC50 is determined from the dose response curve.

PBMCs [2] = test: LPS-induced TNFα/IL-8 release in PBMC cells; type: cell-based; conditions: Homo sapiens, LPS-stimulated PBMCs, IL-8, read-out: IC50 Values for Inhibition of Cytokine Release, PBMCs IL-8
Protocol: Peripheral blood mononuclear cells (PBMCs) from healthy subjects are separated from whole blood using a density gradient (Lymphoprep, Axis-Shield Healthcare). The PBMCs are seeded in 96 well plates and treated with compounds at the desired concentration for 2 hours before addition of 1 ng/mL LPS (Escherichia Coli 0111:B4 from Sigma Aldrich) for 24 hours under normal tissue culture conditions (37° C., 5% CO2). The supernatant is harvested for determination of IL-8 and TNFα concentrations by sandwich ELISA (Duo-set, R&D systems) and read on the fluorescence microplate reader (Varioskan® Flash, ThermoFisher Scientific). The concentration at 50% inhibition (IC50) of IL-8 and TNFα production is calculated from the dose response curve.

GSK3α = GSK3α (Homo sapiens (Human), UniProt P49840); test: GSK 3α enzyme inhibition (FRET, Z-LYTE; Method 2); type: biochemical
Protocol: (§1) The enzyme inhibitory activities of compounds disclosed herein are determined by FRET using synthetic peptides labelled with both donor and acceptor fluorophores (Z-LYTE, Invitrogen Ltd., Paisley, UK).
The inhibitory activities of compounds of the invention against the GSK 3α enzyme isoform (Invitrogen), are evaluated by determining the level of activation/phosphorylation of the target peptide. The GSK3-α protein (500 ng/mL, 2.5 μL) is mixed with the test compound (2.5 μL at either 4 μg/mL, 0.4 μg/mL, 0.04 μg/mL, or 0.004 μg/mL) for 2 hr at RT. The FRET peptide (8 μM, 2.5 μL), which is a phosphorylation target for GSK3α, and ATP (40 μM, 2.5 μL) are then added to the enzyme/compound mixture and the resulting mixture incubated for 1 hr. Development reagent (protease, 5 μL) is added for 1 hr prior to detection in a fluorescence microplate reader (Varioskan® Flash, ThermoFisher Scientific).
(§2) In all cases, the site-specific protease cleaves non-phosphorylated peptide only and eliminates the FRET signal. Phosphorylation levels of each reaction are calculated using the ratio of coumarin emission (donor) over fluorescein emission (acceptor), for which high ratios indicate high phosphorylation and low ratios indicate low phosphorylation levels. The percentage inhibition of each reaction is calculated relative to non-inhibited control and the 50% inhibitory concentration (IC50 value) is then calculated from the concentration-response curve.
This method follows the same steps as Method 1 above, but utilises a shorter period of mixing of the test compound (105 minutes instead of 2 hours) with the GSK3-α protein.

p38 MAPKα = p38 MAPKα (Homo sapiens (Human), UniProt Q16539); test: p38 MAPKα enzyme inhibition (FRET, Z-LYTE; Method 2); type: biochemical
Protocol: as §1
The inhibitory activities of test compounds against the p38 MAPKα isoform (MAPK14: Invitrogen), are evaluated indirectly by determining the level of activation/phosphorylation of the down-stream molecule, MAPKAP-K2. The p38 MAPKα protein (80 ng/mL, 2.5 μL) is mixed with the test compound (2.5 μL of either 4 μg/mL, 0.4 μg/mL, 0.04 μg/mL or 0.004 μg/mL) for 2 hr at RT. […] The mixture is incubated for 1 hr at RT. Development reagent (protease, 5 μL) is added for 1 hr prior to detection in a fluorescence microplate reader (Varioskan® Flash, ThermoFisher Scientific).
Method 2 This method follows the same steps as Method 1 above, but utilises a higher concentration of the p38 MAPKα protein (2.5 μL of 200 ng/mL protein instead of 2.5 μL of 80 ng/mL protein) for mixing with the test compound.
as §2

c-Src = c-Src (Homo sapiens (Human), UniProt P12931); test: c-Src enzyme inhibition (FRET, Z-LYTE); type: biochemical
Protocol: as §1
(§3) The inhibitory activities of compounds of the invention against c-Src and Syk enzymes (Invitrogen), are evaluated in a similar fashion to that described hereinabove. The relevant enzyme (3000 ng/mL or 2000 ng/mL respectively, 2.5 μL) is incubated with the test compound (either 4 μg/mL, 0.4 μg/mL, 0.04 μg/mL, or 0.004 μg/mL, 2.5 μL each) for 2 hr at RT. The FRET peptides (8 μM. 2.5 μL), and appropriate ATP solutions (2.5 μL, 800 μM for c-Src, and 60 μM ATP for Syk) are then added to the enzymes/compound mixtures and incubated for 1 hr. Development reagent (protease, 5 μL) is added for 1 hr prior to detection in a fluorescence microplate reader (Varioskan® Flash, ThermoFisher Scientific).
as §2

Syk = Syk (Homo sapiens (Human), UniProt P43405); test: Syk enzyme inhibition (FRET, Z-LYTE); type: biochemical
Protocol: as §1, §3, §2

Chain of GSK3α (P49840 whole entry): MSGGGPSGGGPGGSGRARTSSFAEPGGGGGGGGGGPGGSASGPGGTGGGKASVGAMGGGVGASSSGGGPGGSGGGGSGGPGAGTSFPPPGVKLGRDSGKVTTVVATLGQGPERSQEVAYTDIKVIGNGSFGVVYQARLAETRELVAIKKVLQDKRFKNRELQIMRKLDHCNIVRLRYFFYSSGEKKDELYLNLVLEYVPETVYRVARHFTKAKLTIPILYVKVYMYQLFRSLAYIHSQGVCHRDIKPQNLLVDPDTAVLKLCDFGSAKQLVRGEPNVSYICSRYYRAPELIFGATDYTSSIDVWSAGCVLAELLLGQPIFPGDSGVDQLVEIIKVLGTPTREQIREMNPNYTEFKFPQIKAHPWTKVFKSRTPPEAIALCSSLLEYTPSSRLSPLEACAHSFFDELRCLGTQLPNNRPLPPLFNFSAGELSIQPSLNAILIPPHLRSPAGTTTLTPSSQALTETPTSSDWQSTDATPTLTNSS
Chain of p38 MAPKα (Q16539 whole entry): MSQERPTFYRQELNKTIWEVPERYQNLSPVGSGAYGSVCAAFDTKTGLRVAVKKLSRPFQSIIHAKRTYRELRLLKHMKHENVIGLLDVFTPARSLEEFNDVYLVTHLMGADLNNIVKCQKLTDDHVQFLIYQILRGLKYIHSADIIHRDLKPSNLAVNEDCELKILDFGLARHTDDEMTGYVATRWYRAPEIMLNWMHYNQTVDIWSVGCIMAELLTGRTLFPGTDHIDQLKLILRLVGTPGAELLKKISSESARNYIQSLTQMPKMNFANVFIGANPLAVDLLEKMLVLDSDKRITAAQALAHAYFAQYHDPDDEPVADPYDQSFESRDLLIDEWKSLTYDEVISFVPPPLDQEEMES
Chain of c-Src (P12931 whole entry, looked up): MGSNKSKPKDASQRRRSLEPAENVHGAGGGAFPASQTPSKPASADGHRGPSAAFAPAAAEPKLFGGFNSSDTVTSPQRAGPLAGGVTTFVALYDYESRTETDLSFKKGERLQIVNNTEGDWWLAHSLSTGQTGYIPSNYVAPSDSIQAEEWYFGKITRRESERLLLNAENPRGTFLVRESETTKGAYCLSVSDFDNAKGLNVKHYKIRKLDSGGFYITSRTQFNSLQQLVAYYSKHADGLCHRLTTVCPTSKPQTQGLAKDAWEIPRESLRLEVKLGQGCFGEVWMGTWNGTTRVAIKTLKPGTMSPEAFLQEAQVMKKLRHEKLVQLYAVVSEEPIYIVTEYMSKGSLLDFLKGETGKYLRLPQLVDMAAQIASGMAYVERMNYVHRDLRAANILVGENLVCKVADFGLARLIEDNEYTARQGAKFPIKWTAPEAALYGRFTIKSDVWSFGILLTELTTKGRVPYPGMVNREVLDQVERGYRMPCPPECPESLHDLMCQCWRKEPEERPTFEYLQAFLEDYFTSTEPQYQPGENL

Row | SMILES | IC50 (PBMCs [1]) | IC50 (PBMCs [2]) | IC50 (GSK3α) | IC50 (p38 MAPKα) | IC50 (c-Src) | IC50 (Syk)
1 | COc1cc(Nc2cc(Oc3ccc(NC(=O)Nc4cc(C(C)C)nn4-c4cccc(CP(C)(C)=O)c4)c4ccccc34)ccn2)cc(C(=O)NCCN2CCOCC2)c1 [Example 50, 3-((4-((4-(3-(1-(3-((Dimethylphosphoryl)methyl)phenyl)-3-isopropyl-1H-pyrazol-5-yl)-ureido)naphthalen-1-yl)oxy)pyridin-2-yl)amino)-5-methoxy-N-(2-morpholinoethyl)-benzamide] | 16.1 nM | 1 nM | 2090 nM | 24 nM |  | 
2 | COCCOCCOCCOCCOc1cc(Nc2nccc(Oc3ccc(NC(=O)Nc4cc(C(C)C)nn4-c4cccc(CP(C)(C)=O)c4)c4ccccc34)n2)cc(OC)c1 [Example 52, 1-(4-((2-((3-(2,5,8,11-Tetraoxatridecan-13-yloxy)-5-methoxyphenyl)amino)pyrimidin-4-yl)oxy)naphthalen-1-yl)-3-(1-(3-((dimethylphosphoryl)methyl)phenyl)-3-isopropyl-1H-pyrazol-5-yl)urea] | 11.6 nM | 3.3 nM | 1190 nM | 18 nM | 3 nM | 4 nM
3 | CC(C)(C)c1cc(NC(=O)Nc2ccc(Oc3ccnc(Nc4ccc(S(F)(F)(F)(F)F)cc4)n3)c3ccccc23)n(-c2ccc(P(C)(C)=O)cc2)n1 [Example 28, 1-(3-(tert-Butyl)-1-(4-(dimethylphosphoryl)phenyl)-1H-pyrazol-5-yl)-3-(4-((2-((4-(Pentafluorothio)phenyl)amino)pyrimidin-4-yl)oxy)naphthalen-1-yl)urea] |  | 214 nM | > 10000 nM | > 1000 nM | 372 nM | 884 nM
4 | Cc1cc(Nc2nccc(Oc3ccc(NC(=O)Nc4cc(C(C)(C)C)nn4-c4ccc(P(C)(C)=O)cc4)c4ccccc34)n2)cc2cn[nH]c12 [Example 21, 1-(3-(tert-Butyl)-1-(4-(dimethylphosphoryl)phenyl)-1H-pyrazol-5-yl)-3-(4-((2-((7-methyl-1H-indazol-5-yl)amino)pyrimidin-4-yl)oxy)naphthalen-1-yl)urea] |  | 3.4 nM | 761 nM | 44 nM | 1 nM | 2 nM
5 | C[Si](C)(C)c1cc(NC(=O)Nc2ccc(Oc3ccnc(Nc4ccccc4)n3)c3ccccc23)n(-c2cccc(CP(C)(C)=O)c2)n1 [Example 35, 1-(1-(3-((Dimethylphosphoryl)methyl)phenyl)-3-(trimethylsilyl)-1H-pyrazol-5-yl)-3-(4-((2-(phenylamino)pyrimidin-4-yl)oxy)naphthalen-1-yl)urea] | 76.8 nM | 7.6 nM | 1270 nM |  |  | 
6 | CC(C)c1cc(NC(=O)Nc2ccc(Oc3ccnc(Nc4cc(C#N)cc(OCCN5CCOCC5)c4)n3)c3ccccc23)n(-c2cccc(CP(C)(C)=O)c2)n1 [Example 57, 1-(4-((2-((3-cyano-5-(2-morpholinoethoxy)phenyl)amino)pyrimidin-4-yl)oxy)-naphthalen-1-yl)-3-(1-(3-((dimethylphosphoryl)methyl)phenyl)-3-isopropyl-1H-pyrazol-5-yl)urea] | 10.5 nM | 2.7 nM | 1250 nM | 21 nM | 9 nM | 7 nM
7 | CN(CCCO)c1nccc(Oc2ccc(NC(=O)Nc3cc(C(C)(C)C)nn3-c3ccc(P(C)(C)=O)cc3)c3ccccc23)n1 [Example 30, 1-(3-(tert-Butyl)-1-(4-(dimethylphosphoryl)phenyl)-1H-pyrazol-5-yl)-3-(4-((2-((3-hydroxy-propyl)(methyl)amino)pyrimidin-4-yl)oxy)naphthalen-1-yl)urea] |  | 280 nM | > 10000 nM | 27 nM | 795 nM | > 1000 nM
8 | CC(C)(C)c1cc(NC(=O)Nc2ccc(Oc3ccnc(Sc4ccccc4)n3)c3ccccc23)n(-c2ccc(P(C)(C)=O)cc2)n1 [Example 29, 1-(3-(tert-Butyl)-1-(4-(dimethylphosphoryl)phenyl)-1H-pyrazol-5-yl)-3-(4-((2-(phenylthio)-pyrimidin-4-yl)oxy)naphthalen-1-yl)urea] |  | 150 nM | > 10000 nM | 149 nM | > 1000 nM | > 1000 nM
9 | CCP(=O)(CC)Cc1cccc(-n2nc(C(C)(C)C)cc2NC(=O)Nc2ccc(Oc3ccnc(Nc4cc(C)c5[nH]ncc5c4)n3)c3ccccc23)c1 [Example 36, 1-(3-(tert-Butyl)-1-(3-((diethylphosphoryl)methyl)phenyl)-1H-pyrazol-5-yl)-3-(4-((2-((7-methyl-1H-indazol-5-yl)amino)pyrimidin-4-yl)oxy)naphthalen-1-yl)urea] |  | 3.5 nM | 3410 nM | 159 nM | 8 nM | 9 nM
10 | COc1cc(Nc2cc(Oc3ccc(NC(=O)Nc4cc(C(C)C)nn4-c4cccc(CP(C)(C)=O)c4)c4ccccc34)ccn2)cc(OCCN2CCOCC2)c1 [Example 51, 1-(1-(3-((Dimethylphosphoryl)methyl)phenyl)-3-isopropyl-1H-pyrazol-5-yl)-3-(4-((2-((3-methoxy-5-(2-morpholinoethoxy)phenyl)amino)pyridin-4-yl)oxy)naphthalen-1-yl)urea] | 6.1 nM | 0.5 nM | 2810 nM | 58 nM | 8 nM | 
11 | CCP(=O)(CC)c1ccc(-n2nc(C(C)(C)C)cc2NC(=O)Nc2ccc(Oc3ccnc(Nc4ccccc4)n3)c3ccccc23)cc1 [Example 22, 1-(3-(tert-Butyl)-1-(4-(diethylphosphoryl)phenyl)-1H-pyrazol-5-yl)-3-(4-((2-(phenylamino)-pyrimidin-4-yl)oxy)naphthalen-1-yl)urea] |  | 32.8 nM | 818 nM | 67 nM | 9 nM | 200 nM
12 | Cc1cc(Nc2nccc(Oc3ccc(NC(=O)Nc4cc(C(C)C)nn4-c4cccc(CP(C)(C)=O)c4)c4ccccc34)n2)cc2cn[nH]c12 [Example 37, 1-(1-(3-((Dimethylphosphoryl)methyl)phenyl)-3-isopropyl-1H-pyrazol-5-yl)-3-(4-((2-((7-methyl-1H-indazol-5-yl)amino)pyrimidin-4-yl)oxy)naphthalen-1-yl)urea] |  | 3 nM | 4860 nM | 70 nM | 10 nM | 5 nM
